Source: ChEMBL document CHEMBL4602729, “O-Alkyl Hydroxamates Display Potent and Selective Antileishmanial Activity” (J Med Chem, 2020)
Active and inactive are the calls of the source. The rule behind the calls is not given here.

What was measured:
[1] = tested on: Leishmania infantum; assay: Antileishmanial activity against Leishmania infantum MON-1 promastigotes assessed as reduction in parasite viability at 100 uM measured after 48 hrs by MTT assay; assay type: functional, organism-based
[2] = Toxicity in Swiss mouse at 500 mg/kg administered as single dose measured after 28 days; assay type: organism-based; settings: in vivo, 672 h
[3] = tested on: Leishmania infantum; assay: (§1) Antileishmanial activity against Leishmania infantum MON-1 promastigotes infected in BALB/c mouse assessed as reduction in spleen parasite load at 10 mg/kg, ip administered daily for 14 days starting from 28 days post infection using PLGA nanoparticle incorporated compound measured post last dose by Taqman qRT-PCR analysis; assay type: functional, organism-based
[4] = tested on: Leishmania infantum; assay: as §1, with “gold” for “PLGA”, “analysis relative to control” for “analysis”; assay type: functional; parameters: scale not given: the % may be the effect or the level left
[5] = tested on: Leishmania infantum; assay: as §1, with “25” for “10”, “analysis relative to control” for “analysis”; assay type: functional; parameters: scale not given: the % may be the effect or the level left
[6] = Drug metabolism in human liver microsomes assessed as compound 13 formation at 1 uM measured after 30 mins by LC-MS/MS analysis; assay type: ADME, Microsome; settings: 0.5 h
[7] = tested on: Leishmania infantum; assay: as §1, with “liver” for “spleen”, “5” for “10”, “gold” for “PLGA”, “dose in presence of meglumine antimoniate” for “dose”, “analysis relative to control” for “analysis”; assay type: functional; parameters: scale not given: the % may be the effect or the level left
[8] = tested on: Leishmania infantum; assay: as §1, with “5” for “10”, “gold” for “PLGA”, “dose in presence of meglumine antimoniate” for “dose”, “analysis relative to control” for “analysis”; assay type: functional; parameters: scale not given: the % may be the effect or the level left
[9] = Toxicity in BALB/c mouse infected with Leishmania infantum MON-1 promastigotes assessed as enzymatic alteration in serum at 10 to 25 mg/kg, ip administered daily for 14 days starting from 28 days post infection using PLGA nanoparticle incorporated compound; assay type: organism-based; settings: in vivo
[10] = Cytotoxicity against mouse L929 cells assessed as reduction in cell viability measured after 72 hrs by tryphan blue assay; assay type: cell-based; settings: L929 cells
[11] = Toxicity in BALB/c mouse infected with Leishmania infantum MON-1 promastigotes assessed as weight loss at 10 to 25 mg/kg, ip administered daily for 14 days starting from 28 days post infection using PLGA nanoparticle incorporated compound; assay type: organism-based; settings: in vivo
[12] = Half life in human liver microsomes at 1 uM in presence of NADPH by LC-MS/MS analysis; assay type: ADME, Microsome
[13] = Toxicity in BALB/c mouse infected with Leishmania infantum MON-1 promastigotes assessed as biochemical alteration in serum at 10 to 25 mg/kg, ip administered daily for 14 days starting from 28 days post infection using gold nanoparticle incorporated compound; assay type: organism-based; settings: in vivo
[14] = Toxicity in BALB/c mouse infected with Leishmania infantum MON-1 promastigotes assessed as swelling of liver at 10 to 25 mg/kg, ip administered daily for 14 days starting from 28 days post infection using gold nanoparticle incorporated compound; assay type: organism-based; settings: in vivo
[15] = Sub-acute toxicity in Swiss mouse at 25 to 200 mg/kg administered as for 14 days and measured on day 28; assay type: organism-based; settings: in vivo, 336 h
[16] = tested on: Leishmania major; assay: Antileishmanial activity against Leishmania major MON-4 intracellular amastigotes; assay type: functional, organism-based; settings: Leishmania major, MON-4
[17] = biological target: Cytochrome P450 3A4 (Homo sapiens, UniProt P08684); assay: Inhibition of CYP3A4 in human liver microsomes using testosterone as substrate measured after 15 mins by LC-MS/MS analysis; assay type: ADME
Cytochrome P450 3A4, sequence (P08684 whole entry): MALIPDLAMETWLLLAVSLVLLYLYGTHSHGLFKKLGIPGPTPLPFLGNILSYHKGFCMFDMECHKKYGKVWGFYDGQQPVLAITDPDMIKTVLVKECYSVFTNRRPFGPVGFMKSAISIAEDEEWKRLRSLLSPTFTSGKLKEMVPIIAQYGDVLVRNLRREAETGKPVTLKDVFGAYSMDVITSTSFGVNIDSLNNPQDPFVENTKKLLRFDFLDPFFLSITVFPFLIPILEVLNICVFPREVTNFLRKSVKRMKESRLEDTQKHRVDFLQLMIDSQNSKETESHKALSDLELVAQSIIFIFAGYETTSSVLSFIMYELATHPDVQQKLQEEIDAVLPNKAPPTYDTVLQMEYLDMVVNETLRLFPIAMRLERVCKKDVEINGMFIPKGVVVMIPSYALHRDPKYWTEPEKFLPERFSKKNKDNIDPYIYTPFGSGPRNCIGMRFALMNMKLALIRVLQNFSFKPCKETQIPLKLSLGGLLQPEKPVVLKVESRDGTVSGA

[18] = Toxicity in BALB/c mouse infected with Leishmania infantum MON-1 promastigotes assessed as swelling of spleen at 10 to 25 mg/kg, ip administered daily for 14 days starting from 28 days post infection using PLGA nanoparticle incorporated compound; assay type: organism-based; settings: in vivo
[19] = tested on: Leishmania infantum; assay: as §1, with “liver” for “spleen”, “25” for “10”, “gold” for “PLGA”, “analysis relative to control” for “analysis”; assay type: functional; parameters: scale not given: the % may be the effect or the level left
[20] = tested on: Leishmania infantum; assay: as §1, with “gold” for “PLGA”, “dose in presence of meglumine antimoniate” for “dose”, “analysis relative to control” for “analysis”; assay type: functional; parameters: scale not given: the % may be the effect or the level left
[21] = Toxicity in BALB/c mouse infected with Leishmania infantum MON-1 promastigotes assessed as biochemical alteration in plasma at 10 to 25 mg/kg, ip administered daily for 14 days starting from 28 days post infection using PLGA nanoparticle incorporated compound; assay type: organism-based; settings: in vivo
[22] = Mutagenicity in Salmonella typhimurium TA98 at 10 to 75 uM measured after 5 days in absence of S9 fraction by Ames test; assay type: toxicity; settings: salmonella enterica subsp. enterica serovar typhimurium, s9, 120 h
[23] = tested on: Leishmania infantum; assay: as §1, with “liver” for “spleen”, “25” for “10”, “analysis relative to control” for “analysis”; assay type: functional; parameters: scale not given: the % may be the effect or the level left
[24] = Drug metabolism in human liver microsomes assessed as compound 12 formation at 1 uM measured after 30 mins by LC-MS/MS analysis; assay type: ADME, Microsome; settings: 0.5 h
[25] = Drug metabolism in human liver microsomes assessed as N-oxidation of amide moiety by measuring compound 14 formation at 1 uM measured up to 60 mins by LC-MS/MS analysis; assay type: ADME, Microsome; settings: 1 h
[26] = Toxicity in BALB/c mouse infected with Leishmania infantum MON-1 promastigotes assessed as swelling of kidney at 10 to 25 mg/kg, ip administered daily for 14 days starting from 28 days post infection using PLGA nanoparticle incorporated compound; assay type: organism-based; settings: in vivo
[27] = Toxicity in BALB/c mouse infected with Leishmania infantum MON-1 promastigotes assessed as enzymatic alteration in plasma at 10 to 25 mg/kg, ip administered daily for 14 days starting from 28 days post infection using PLGA nanoparticle incorporated compound; assay type: organism-based; settings: in vivo
[28] = biological target: Cytochrome P450 2D6 (Homo sapiens, UniProt P10635); assay: Inhibition of CYP2D6 in human liver microsomes using dextromethorphan as substrate measured after 30 mins by LC-MS/MS analysis; assay type: ADME
Cytochrome P450 2D6, sequence (P10635 whole entry): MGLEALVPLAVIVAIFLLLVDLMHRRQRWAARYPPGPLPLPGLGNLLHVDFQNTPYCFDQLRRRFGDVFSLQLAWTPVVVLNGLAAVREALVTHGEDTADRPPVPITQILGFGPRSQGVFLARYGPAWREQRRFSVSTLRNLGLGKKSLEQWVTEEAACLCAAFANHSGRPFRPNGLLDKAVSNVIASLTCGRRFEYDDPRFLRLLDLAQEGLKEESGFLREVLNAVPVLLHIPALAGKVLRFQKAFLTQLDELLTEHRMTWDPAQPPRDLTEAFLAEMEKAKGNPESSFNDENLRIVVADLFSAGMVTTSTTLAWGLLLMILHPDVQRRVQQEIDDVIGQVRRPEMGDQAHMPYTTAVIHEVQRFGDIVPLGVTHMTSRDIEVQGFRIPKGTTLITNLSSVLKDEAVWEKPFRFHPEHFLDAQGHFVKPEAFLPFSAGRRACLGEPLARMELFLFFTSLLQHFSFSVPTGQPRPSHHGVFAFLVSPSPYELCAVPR

[29] = tested on: Leishmania infantum; assay: as §1, with “25” for “10”, “gold” for “PLGA”, “analysis relative to control” for “analysis”; assay type: functional; parameters: scale not given: the % may be the effect or the level left
[30] = Toxicity in BALB/c mouse infected with Leishmania infantum MON-1 promastigotes assessed as swelling of kidney at 10 to 25 mg/kg, ip administered daily for 14 days starting from 28 days post infection using gold nanoparticle incorporated compound; assay type: organism-based; settings: in vivo
[31] = Mutagenicity in Salmonella typhimurium TA98 at 10 to 75 uM measured after 5 days in presence of S9 fraction by Ames test; assay type: toxicity, subcellular; settings: salmonella enterica subsp. enterica serovar typhimurium, s9, 120 h
[32] = Cytotoxicity against Swiss mouse BMDM assessed as reduction in cell viability measured after 72 hrs by tryphan blue assay; assay type: cell-based; settings: Swiss, BMDM
[33] = Drug metabolism in human liver microsomes assessed as vorinostat formation at 1 uM measured up to 60 mins by LC-MS/MS analysis; assay type: ADME, Microsome; settings: 1 h
[34] = tested on: Leishmania infantum; assay: as §1, with “liver” for “spleen”, “gold” for “PLGA”, “dose in presence of meglumine antimoniate” for “dose”, “analysis relative to control” for “analysis”; assay type: functional; parameters: scale not given: the % may be the effect or the level left
[35] = Toxicity in BALB/c mouse infected with Leishmania infantum MON-1 promastigotes assessed as enzymatic alteration in serum at 10 to 25 mg/kg, ip administered daily for 14 days starting from 28 days post infection using gold nanoparticle incorporated compound; assay type: organism-based; settings: in vivo

SMILES: O=C(CCCCCCC(=O)Nc1ccccc1)NOC(c1ccccc1)(c1ccccc1)c1ccccc1
- Activity [1]: inactive
- Activity [2]: Non-Toxic
- Activity [3]: inactive
- Activity [4]: 86%
- Activity [5]: 70%
- Drug metabolism [6]: Metabolite_Detected
- Activity [7]: 98%
- Activity [8]: 84%
- Activity [9]: Non-Toxic
- CC50 at 72 h [10]: > 100 µM
- Activity [11]: Non-Toxic
- half-life at 1 µM [12]: 8.7 min
- Activity [13]: Non-Toxic
- Activity [14]: Non-Toxic
- Activity [15]: Non-Toxic
- IC50 [16]: 1 µM
- IC50 [17]: 5.56 µM
- Activity [18]: Non-Toxic
- Activity [19]: 68%
- Activity [20]: 92%
- Activity [21]: Non-Toxic
- Activity [22]: Non-Toxic
- Activity [23]: 60%
- Drug metabolism [24]: Metabolite_Detected
- Drug metabolism [25]: Metabolite_Detected
- Activity [26]: Non-Toxic
- Activity [27]: Non-Toxic
- IC50 [28]: > 86.2 µM
- Activity [29]: 96%
- Activity [30]: Non-Toxic
- Activity [31]: Non-Toxic
- CC50 at 72 h [32]: > 100 µM
- Drug metabolism [33]: Metabolite_Notdetected
- Activity [34]: 100%
- Activity [35]: Non-Toxic
